“And” between values parts separate entries of the source, which are not always exact repeats. Identical values can stand only once. Like-named read-outs stand apart in the source and are kept apart here.
Columns and labels:
[1] = biological target: T1, PRDM7 (Homo sapiens, UniProt Q9NQW5); assay: PRDM7 methyltransferase activity assay (3H-SAM scintillation proximity assay); format: biochemical
T1 sequence (Q9NQW5 1-492): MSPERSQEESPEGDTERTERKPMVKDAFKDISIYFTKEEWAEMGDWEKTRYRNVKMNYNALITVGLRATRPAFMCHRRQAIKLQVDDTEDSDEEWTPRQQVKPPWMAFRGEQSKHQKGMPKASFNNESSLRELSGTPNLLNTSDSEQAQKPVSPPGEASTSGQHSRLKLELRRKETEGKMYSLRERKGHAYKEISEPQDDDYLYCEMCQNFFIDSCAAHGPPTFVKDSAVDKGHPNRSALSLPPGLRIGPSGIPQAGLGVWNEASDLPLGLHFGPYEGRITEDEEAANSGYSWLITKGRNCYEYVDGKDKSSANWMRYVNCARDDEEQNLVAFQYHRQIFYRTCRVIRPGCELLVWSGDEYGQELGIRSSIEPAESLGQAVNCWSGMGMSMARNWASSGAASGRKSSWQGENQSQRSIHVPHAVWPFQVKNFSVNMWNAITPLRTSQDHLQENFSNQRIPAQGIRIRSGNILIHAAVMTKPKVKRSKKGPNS
Description: Methyltransferase activity assays for PRDM9 (amino acids: 195–415) were performed by monitoring the incorporation of tritium-labeled methyl group from ^3H-SAM to H3 (1–25) peptide using scintillation proximity assay (SPA). The enzymatic reactions were performed at 23 °C with 30 min incubation in 20 mM Tris-HCl (pH 7.5), 5 mM DTT, 0.01% Triton X-100 and 1% DMSO containing 71 μM of SAM (5 μM of ^3H-SAM), 4 μM of biotinylated H3 (1–25) peptide and 5 nM of PRDM9. For PRDM7, reactions were performed at 23 °C with 90 min incubation in 20 mM BTP pH 9.0, 5 mM DTT, 0.01% Triton X-100 and 1% DMSO containing 900 μM of SAM (5 μM of ^3H-SAM), 4 μM of biotinylated H3 (1–25) peptide and 100 nM of enzyme. Compounds were titrated from 3 nM to 50 μM and from 200 nM to 200 μM for PRDM9 and PRDM7, respectively. To stop the reactions, 10 μL of 7.5 M guanidine hydrochloride was added to 10 μL of reaction mixture, followed by 60 μL of buffer (20 mM Tris, pH 8.0), mixed, and transferred to a 384-well streptavidin coated Flash-plate. After mixing, the mixtures in Flash-plate were incubated for 2 h, and the CPM counts were measured using TopCount plate reader. All enzymatic reactions were performed in triplicate, and IC50 values were determined by fitting the data to Four Parameter Logistic equation using the GraphPad Prism software.

[2] = system: NanoLuc-tagged PRDM9 (residues 135–285); assay: NanoLuciferase thermal shift assay (NALTSA) in HEK293T cells; format: cell-based, human; settings: for Tm of PRDM9 in cells (NALTSA): 0.1% DMSO, DMSO control Tm 52 ± 0.3 °C; for ∆Tm (°C): Fig. 5b, replicates; for Normalized_Signal: Fig. 5a, independent replicates
Description: Cells treated with 0.1% DMSO alone were used as a control.
Shown is the mean ± SEM of three biological replicates. Boxes indicate the mean values. P-values calculated using an unpaired Welch’s two-tailed t-test, *p-value = 0.017. Source data are provided as a Source Data file.
NALTSA assays were performed as previously described. Briefly, HEK293T cells were plated in 6-well plates at a density of 1.5 × 10^5 cells/mL. The following day, cells were transfected with 2 µg of C-terminally NanoLuc®-tagged PRDM9 (residues 135–285) with X-tremeGene HP DNA Transfection Reagent (Roche). Cells were incubated for 24 h, trypsinized and resuspended at 1.5 × 10^5 cells/mL in 1x PBS supplemented with protease inhibitors. Cell suspensions were incubated at 37 °C with 10 μM compound or 0.1% DMSO alone for 1 h. Sixty microliters of cells was dispensed per well of a 96-well PCR plate followed by heating across a temperature gradient for 3 min on a Mastercycler® thermal cycler (Eppendorf). After heating, samples were transferred to a 96-well white plastic plate (Corning) and Glo® Substrate (Promega) was added to each well at 1:1000 final dilution. NanoLuciferase signal was read at 450 nm (filter: 450 nm/BP 80 nm) on a CLARIOstar microplate reader (Mandel).

[3] = 0.195312 µM compound, 0.195312 µM
[4] = 0.195312 µM compound, read-out: PRDM7-Activity %, Average (n=3)
[5] = 0.195312 µM compound, read-out: PRDM7-Activity %, single experiments
[6] = 0.390625 µM compound, 0.390625 µM
[7] = 0.390625 µM compound, read-out: PRDM7-Activity %, Average (n=3)
[8] = 0.390625 µM compound, read-out: PRDM7-Activity %, single experiments
[9] = 0.78125 µM compound, 0.78125 µM
[10] = 0.78125 µM compound, read-out: PRDM7-Activity %, Average (n=3)
[11] = 0.78125 µM compound, read-out: PRDM7-Activity %, single experiments
[12] = 1.5625 µM compound, read-out: PRDM7-Activity %, Average (n=3)
[13] = 1.5625 µM compound, read-out: PRDM7-Activity %, single experiments
[14] = 3.125 µM compound, read-out: PRDM7-Activity %, Average (n=3)
[15] = 3.125 µM compound, read-out: PRDM7-Activity %, single experiments
[16] = 6.25 µM compound, read-out: PRDM7-Activity %, Average (n=3)
[17] = 6.25 µM compound, read-out: PRDM7-Activity %, single experiments
[18] = 12.5 µM compound, read-out: PRDM7-Activity %, Average (n=3)
[19] = 12.5 µM compound, read-out: PRDM7-Activity %, single experiments
[20] = 25 µM compound, read-out: PRDM7-Activity %, Average (n=3)
[21] = 25 µM compound, read-out: PRDM7-Activity %, single experiments
[22] = 50 µM compound, read-out: PRDM7-Activity %, Average (n=3)
[23] = 50 µM compound, read-out: PRDM7-Activity %, single experiments
[24] = 100 µM compound, read-out: PRDM7-Activity %, Average (n=3)
[25] = 100 µM compound, read-out: PRDM7-Activity %, single experiments
[26] = 200 µM compound, read-out: PRDM7-Activity %, Average (n=3)

COc1cc(OC)cc(-c2noc(N3CCN(C)C4(CCN(c5ccccc5)CC4)C3)n2)c1 [MRK-740-NC]
PRDM7 inhibition (in words) [1]: no significant PRDM7 inhibition
PRDM7-Activity %, single experiments [1, 3]: 100.2% and 97.4%
activity at 0.195312 µM [1, 4]: 99.4%
activity at 0.195312 µM [1, 5]: 101%
PRDM7-Activity %, single experiments [1, 6]: 100.3% and 102.2%
activity at 0.390625 µM [1, 7]: 102%
activity at 0.390625 µM [1, 8]: 104%
PRDM7-Activity %, single experiments [1, 9]: 94.78% and 94.12%
activity at 0.78125 µM [1, 10]: 92.2%
activity at 0.78125 µM [1, 11]: 87.6%
PRDM7-Activity %, single experiments ([1]; 1.5625 µM compound, 1.5625 µM): 107.5% and 100.6%
activity at 1.5625 µM [1, 12]: 102%
activity at 1.5625 µM [1, 13]: 98.2%
PRDM7-Activity %, single experiments ([1]; 3.125 µM compound, 3.125 µM): 102.8% and 99.77%
activity at 3.125 µM [1, 14]: 97.8%
activity at 3.125 µM [1, 15]: 90.9%
PRDM7-Activity %, single experiments ([1]; 6.25 µM compound, 6.25 µM): 83.67% and 87.1%
activity at 6.25 µM [1, 16]: 90.6%
activity at 6.25 µM [1, 17]: 101%
PRDM7-Activity %, single experiments ([1]; 12.5 µM compound, 12.5 µM): 102.7% and 91.72%
activity at 12.5 µM [1, 18]: 94.2%
activity at 12.5 µM [1, 19]: 88.2%
PRDM7-Activity %, single experiments ([1]; 25 µM compound, 25 µM): 99.4% and 100.5%
activity at 25 µM [1, 20]: 101%
activity at 25 µM [1, 21]: 105%
PRDM7-Activity %, single experiments ([1]; 50 µM compound, 50 µM): 93.21% and 92.53%
activity at 50 µM [1, 22]: 93%
activity at 50 µM [1, 23]: 93.3%
PRDM7-Activity %, single experiments ([1]; 100 µM compound, 100 µM): 98.05% and 87.79%
activity at 100 µM [1, 24]: 89.8%
activity at 100 µM [1, 25]: 83.5%
PRDM7-Activity %, single experiments ([1]; 200 µM compound, 200 µM): 98.85% and 73.14% and 89.14%
activity at 200 µM [1, 26]: 87%
Tm of PRDM9 in cells (NALTSA) ([2]; 10 µM compound, 1 h): 51.6 ± 0.3 °C
∆Tm (°C) [2]: 0.2175 °C and -0.9409 °C and -0.4232 °C
Normalized_Signal ([2]; Temperature 41.9 °C): 1
Normalized_Signal ([2]; Temperature 42.4 °C): 0.9008 and 0.9609 and 1.092
Normalized_Signal ([2]; Temperature 43.6 °C): 0.8855 and 0.9556 and 0.9997
Normalized_Signal ([2]; Temperature 45.5 °C): 0.873 and 0.8101 and 0.9461
Normalized_Signal ([2]; Temperature 47.8 °C): 0.7977 and 0.6572 and 0.8375
Normalized_Signal ([2]; Temperature 50.4 °C): 0.6003 and 0.5454 and 0.5984
Normalized_Signal ([2]; Temperature 53.1 °C): 0.5018 and 0.4469 and 0.4089
Normalized_Signal ([2]; Temperature 55.8 °C): 0.3624 and 0.3667 and 0.3326
Normalized_Signal ([2]; Temperature 58.1 °C): 0.3387 and 0.2885 and 0.2383
Normalized_Signal ([2]; Temperature 60.1 °C): 0.2284 and 0.1546 and 0.1556
Normalized_Signal ([2]; Temperature 61.5 °C): 0.2018 and 0.1276 and 0.1034
Normalized_Signal ([2]; Temperature 62.1 °C): 0.1991 and 0.1124 and 0.111

COc1cc(OC)cc(-c2noc(N3CCN(C)C4(CCN(c5ccnc(C)c5)CC4)C3)n2)c1 [MRK-740]
PRDM7-Activity %, single experiments [1, 3]: 104.6% and 100.9%
activity at 0.195312 µM [1, 4]: 103%
activity at 0.195312 µM [1, 5]: 104%
PRDM7-Activity %, single experiments [1, 6]: 104.3% and 107.1%
activity at 0.390625 µM [1, 7]: 105%
activity at 0.390625 µM [1, 8]: 103%
PRDM7-Activity %, single experiments [1, 9]: 95.5% and 104.5%
activity at 0.78125 µM [1, 10]: 99.4%
activity at 0.78125 µM [1, 11]: 98.3%
PRDM7-Activity %, single experiments ([1]; 1.5625 µM compound, 1.5625 µM): 97.86% and 90.81%
activity at 1.5625 µM [1, 12]: 94.9%
activity at 1.5625 µM [1, 13]: 96.1%
PRDM7-Activity %, single experiments ([1]; 3.125 µM compound, 3.125 µM): 99.32% and 89.67%
activity at 3.125 µM [1, 14]: 95.4%
activity at 3.125 µM [1, 15]: 97.1%
PRDM7-Activity %, single experiments ([1]; 6.25 µM compound, 6.25 µM): 81.54% and 82.05%
activity at 6.25 µM [1, 16]: 81.6%
activity at 6.25 µM [1, 17]: 81.2%
PRDM7-Activity %, single experiments ([1]; 12.5 µM compound, 12.5 µM): 70.89% and 77.38%
activity at 12.5 µM [1, 18]: 74.1%
activity at 12.5 µM [1, 19]: 74%
PRDM7-Activity %, single experiments ([1]; 25 µM compound, 25 µM): 64.86% and 73.52%
activity at 25 µM [1, 20]: 69.3%
activity at 25 µM [1, 21]: 69.4%
activity at 50 µM [1, 22]: 46.3%
activity at 50 µM [1, 23]: 47.1%
PRDM7-Activity %, single experiments ([1]; 100 µM compound, 100 µM): 28% and 33.38%
activity at 100 µM [1, 24]: 30%
activity at 100 µM [1, 25]: 28.6%
PRDM7-Activity %, single experiments ([1]; 200 µM compound, 200 µM): 12.96% and 18.48%
activity at 200 µM [1, 26]: 15.8%
activity at 200 µM ([1]; 200 µM compound, read-out: PRDM7-Activity %, single experiments): 16.1%
IC50 ([1]; biotinylated H3 (1–25) peptide): 45 ± 7 µM
Tm of PRDM9 in cells (NALTSA) ([2]; 10 µM compound, 1 h): 54 ± 0.2 °C
∆Tm of PRDM9 in cells (NALTSA) ([2]; 10 µM compound, 1 h, versus DMSO): 2 °C
∆Tm (°C) [2]: 2.141 °C and 1.141 °C and 2.73 °C
Normalized_Signal ([2]; Temperature 41.9 °C): 1
Normalized_Signal ([2]; Temperature 42.4 °C): 1.082 and 0.9671 and 1.026
Normalized_Signal ([2]; Temperature 43.6 °C): 1.044 and 1.056 and 1.097
Normalized_Signal ([2]; Temperature 45.5 °C): 1.058 and 1.067 and 0.973
Normalized_Signal ([2]; Temperature 47.8 °C): 1.041 and 0.9815 and 0.9273
Normalized_Signal ([2]; Temperature 50.4 °C): 0.9323 and 0.8369 and 0.6881
Normalized_Signal ([2]; Temperature 53.1 °C): 0.6552 and 0.5708 and 0.5431
Normalized_Signal ([2]; Temperature 55.8 °C): 0.4561 and 0.4452 and 0.3801
Normalized_Signal ([2]; Temperature 58.1 °C): 0.3081 and 0.2709 and 0.2289
Normalized_Signal ([2]; Temperature 60.1 °C): 0.1968 and 0.1844 and 0.1466
Normalized_Signal ([2]; Temperature 61.5 °C): 0.1518 and 0.1586 and 0.1205
Normalized_Signal ([2]; Temperature 62.1 °C): 0.1417 and 0.1648 and 0.1053
